Assay results: patent US20070275936A1, “Formulations and Treatment Methods” (priority 1998, published 2007)

Target: chloroquine resistant KI P. falciparum
Type: cell-based
Method: Triplicate readings were made for each concentration.
The testing was carried out according to the procedure of Desjardins et al. 1979. After 30 hr culture at 37 degrees C., the same microtiter plates from schizont inhibition assays with another triplicate wells were pulsed with ^3H-hypoxanthine for overnight. The cell suspensions were washed twice on millipore glass fiber filter with Millipore filter apparatus. […] The activity of the drug was measured by plotting DPM against concentration of drug.

C[C@]12CC[C@H](O)C[C@@H]1CC[C@@H]1[C@@H]2CC[C@]2(C)C(=O)[C@H](Cl)C[C@@H]12 [16-chloroepiandrosterone, 16α-chloroepiandrosterone]
IC50: ˜9.25 μg/mL

C[C@]12CC[C@H](O)CC1=CC[C@@H]1[C@@H]2CC[C@]2(C)C(=O)[C@H](Br)C[C@@H]12 [DHEA-Br, 16α-bromodehydro-epiandrosterone]
IC50: ˜25.0 μg/mL
